Legend:
[1] = molecular target: T1, SMARCA2-HiBiT (Homo sapiens, UniProt P51531); test: SMARCA2 HiBiT degradation assay in HeLa cells; type: cell-based; conditions: 18 hours incubation; for DC50: read-out: HeLa_HiBit-SM2 DC50; for Dmax: HeLa, read-out: HeLa-HiBit-SM2 Dmax (%)
T1 construct: SMARCA2-HiBiT knock-in Hela monoclonal cell (CS302366); host or cells: HeLa monoclonal knock-in line (CRISPR HiBiT knock-in at the endogenous locus, heterozygous)
Outline: (§1)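 HeLa monoclonal lines with heterozygous HiBiT knock-in were seeded at 2500 cells/well in EMEM with 10% FBS and treated with compound for 18 h at 37 °C. Remaining tagged protein was measured by Nano-Glo HiBiT lytic luminescence after 30–60 min at RT, and values came from curve fitting.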

[2] = molecular target: T2, SMARCA4-HiBiT (Homo sapiens, UniProt P51532); test: SMARCA4 HiBiT degradation assay in HeLa cells; type: cell-based; conditions: 18 hours incubation; for DC50: read-out: HeLa-HiBit-SM4 DC50; for Dmax: HeLa, read-out: HeLa-HiBit-SM4 Dmax (%)
T2 construct: SMARCA4-HiBiT knock-in Hela monoclonal cell (CS3023226); host or cells: HeLa monoclonal knock-in line (CRISPR HiBiT knock-in at the endogenous locus, heterozygous)
T2 sequence (P51532 whole entry): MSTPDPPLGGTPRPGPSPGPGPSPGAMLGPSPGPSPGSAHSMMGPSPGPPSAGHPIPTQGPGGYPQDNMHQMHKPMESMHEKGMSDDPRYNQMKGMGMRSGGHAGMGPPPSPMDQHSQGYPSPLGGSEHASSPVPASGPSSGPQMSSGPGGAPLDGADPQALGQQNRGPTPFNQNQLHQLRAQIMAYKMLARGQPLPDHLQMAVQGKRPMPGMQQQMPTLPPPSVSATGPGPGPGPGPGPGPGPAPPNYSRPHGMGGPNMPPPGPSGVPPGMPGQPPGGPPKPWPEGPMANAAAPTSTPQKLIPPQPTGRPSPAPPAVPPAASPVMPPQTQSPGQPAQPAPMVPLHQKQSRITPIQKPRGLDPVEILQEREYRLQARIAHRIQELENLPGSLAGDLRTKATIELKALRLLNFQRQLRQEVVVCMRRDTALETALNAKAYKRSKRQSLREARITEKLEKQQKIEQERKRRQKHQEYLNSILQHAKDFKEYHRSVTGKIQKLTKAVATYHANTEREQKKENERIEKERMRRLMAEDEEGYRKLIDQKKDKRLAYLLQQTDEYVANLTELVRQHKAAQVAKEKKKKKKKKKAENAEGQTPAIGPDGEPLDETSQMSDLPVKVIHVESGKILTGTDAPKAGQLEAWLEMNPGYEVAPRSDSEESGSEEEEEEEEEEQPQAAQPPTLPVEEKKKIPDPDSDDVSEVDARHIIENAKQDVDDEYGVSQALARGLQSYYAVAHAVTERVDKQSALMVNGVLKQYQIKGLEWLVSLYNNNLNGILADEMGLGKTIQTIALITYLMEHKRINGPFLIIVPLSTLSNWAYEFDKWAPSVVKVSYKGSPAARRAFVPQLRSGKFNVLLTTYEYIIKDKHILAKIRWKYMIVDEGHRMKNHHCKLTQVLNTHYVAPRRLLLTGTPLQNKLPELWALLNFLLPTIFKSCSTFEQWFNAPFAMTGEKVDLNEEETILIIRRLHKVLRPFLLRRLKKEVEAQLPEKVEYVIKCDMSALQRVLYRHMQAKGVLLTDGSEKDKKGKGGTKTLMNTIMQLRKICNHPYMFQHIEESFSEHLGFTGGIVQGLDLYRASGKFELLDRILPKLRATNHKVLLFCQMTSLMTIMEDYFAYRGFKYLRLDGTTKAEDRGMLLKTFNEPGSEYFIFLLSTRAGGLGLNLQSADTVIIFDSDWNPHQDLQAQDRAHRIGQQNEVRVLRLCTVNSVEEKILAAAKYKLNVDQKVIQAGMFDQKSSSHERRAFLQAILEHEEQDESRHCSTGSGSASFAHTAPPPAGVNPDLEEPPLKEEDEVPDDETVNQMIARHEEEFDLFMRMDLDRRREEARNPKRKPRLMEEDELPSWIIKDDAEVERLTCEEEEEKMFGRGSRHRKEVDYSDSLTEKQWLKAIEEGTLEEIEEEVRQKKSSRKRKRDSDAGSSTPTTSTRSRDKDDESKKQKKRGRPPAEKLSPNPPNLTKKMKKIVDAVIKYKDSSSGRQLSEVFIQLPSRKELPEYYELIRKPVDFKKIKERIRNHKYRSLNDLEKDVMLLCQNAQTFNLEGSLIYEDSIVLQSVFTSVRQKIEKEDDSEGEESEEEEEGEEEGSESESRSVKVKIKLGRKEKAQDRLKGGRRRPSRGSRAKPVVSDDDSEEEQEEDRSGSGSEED
Outline: as §1

T1 sequence (P51531 whole entry): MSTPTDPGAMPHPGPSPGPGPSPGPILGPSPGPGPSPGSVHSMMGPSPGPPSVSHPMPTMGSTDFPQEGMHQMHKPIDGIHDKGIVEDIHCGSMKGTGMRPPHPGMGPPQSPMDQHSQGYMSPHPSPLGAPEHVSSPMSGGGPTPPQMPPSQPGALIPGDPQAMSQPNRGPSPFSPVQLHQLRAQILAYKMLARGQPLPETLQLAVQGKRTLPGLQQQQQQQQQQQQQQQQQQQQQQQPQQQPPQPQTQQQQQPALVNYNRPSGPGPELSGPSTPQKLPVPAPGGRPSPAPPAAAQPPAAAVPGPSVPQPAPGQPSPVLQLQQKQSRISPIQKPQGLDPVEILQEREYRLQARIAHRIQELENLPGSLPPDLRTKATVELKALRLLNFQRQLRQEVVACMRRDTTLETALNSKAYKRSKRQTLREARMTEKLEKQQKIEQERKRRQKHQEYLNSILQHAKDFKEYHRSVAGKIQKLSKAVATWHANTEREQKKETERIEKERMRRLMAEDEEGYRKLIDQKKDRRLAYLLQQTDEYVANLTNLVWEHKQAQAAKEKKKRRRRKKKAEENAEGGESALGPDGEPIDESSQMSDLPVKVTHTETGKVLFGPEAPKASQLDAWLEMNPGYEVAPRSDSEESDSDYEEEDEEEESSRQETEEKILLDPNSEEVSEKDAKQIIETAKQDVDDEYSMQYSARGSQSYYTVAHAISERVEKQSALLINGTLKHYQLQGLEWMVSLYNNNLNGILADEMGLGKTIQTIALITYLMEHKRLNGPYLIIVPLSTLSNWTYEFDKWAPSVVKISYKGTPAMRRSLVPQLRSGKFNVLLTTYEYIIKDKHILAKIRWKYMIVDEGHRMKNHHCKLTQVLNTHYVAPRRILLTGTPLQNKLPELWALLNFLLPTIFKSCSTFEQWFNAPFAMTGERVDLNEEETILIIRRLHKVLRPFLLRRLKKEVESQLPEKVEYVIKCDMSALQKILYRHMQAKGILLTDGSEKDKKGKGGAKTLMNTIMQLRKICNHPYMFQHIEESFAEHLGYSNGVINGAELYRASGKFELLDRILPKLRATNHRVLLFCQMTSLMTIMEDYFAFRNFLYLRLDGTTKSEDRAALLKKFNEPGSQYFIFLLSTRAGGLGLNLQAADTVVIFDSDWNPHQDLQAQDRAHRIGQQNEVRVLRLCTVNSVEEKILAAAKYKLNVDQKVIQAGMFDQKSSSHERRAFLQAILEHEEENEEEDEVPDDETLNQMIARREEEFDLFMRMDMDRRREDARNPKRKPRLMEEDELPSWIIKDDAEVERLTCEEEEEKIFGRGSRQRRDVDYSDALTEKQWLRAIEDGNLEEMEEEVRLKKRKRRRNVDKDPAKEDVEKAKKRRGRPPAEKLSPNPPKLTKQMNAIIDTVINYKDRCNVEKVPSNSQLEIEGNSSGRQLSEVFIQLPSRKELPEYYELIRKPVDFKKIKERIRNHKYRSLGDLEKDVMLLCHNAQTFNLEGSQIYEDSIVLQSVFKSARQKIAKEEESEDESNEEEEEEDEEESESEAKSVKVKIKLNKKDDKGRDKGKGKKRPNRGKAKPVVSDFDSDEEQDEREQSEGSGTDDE

SMILES: CC1CC(CN2CCN3c4cc(-c5ccccc5O)nnc4NC[C@H]3C2)CCN1CC1CCN(c2cc3c(cc2F)C(=O)N(C2CCC(=O)NC2=O)C3=O)CC1 (stereo partly drawn) [Example 166, 2-(2,6-dioxopiperidin-3-yl)-5-fluoro-6-[4-[[4-[[(10S)-4-(2-hydroxyphenyl)-1,5,6,8,12-pentazatricyclo[8.4.0.02,7]tetradeca-2,4,6-trien-12-yl]methyl]-2-methylpiperidin-1-yl]methyl]piperidin-1-yl] isoindole-1,3-dione]
- DC50 [1]: < 0.01 µM
- Dmax [1]: > 85%
- DC50 [2]: < 0.01 µM
- Dmax [2]: > 85%

SMILES: O=C1CCC(N2C(=O)c3ccc(N4C[C@@H]5[C@@H](CN6CCC(CN7CCN8c9cc(-c%10ccccc%10O)nnc9NC[C@H]8C7)CC6)[C@@H]5C4)cc3C2=O)C(=O)N1 (stereo partly drawn) [Example 154, 2-(2,6-dioxopiperidin-3-yl)-5-((1R,5S,6s)-6-((4-(((S)-2-(2-hydroxyphenyl)-5,6,6a,7,9,10-hexahydro-8H-pyrazino[1′,2′:4,5]pyrazino[2,3-c]pyridazin-8-yl)methyl)piperidin-1-yl)methyl)-3-azabicyclo[3.1.0]hexan-3-yl)isoindoline-1,3-dione]
- DC50 [1]: < 0.01 µM
- Dmax [1]: 50 to 75%
- DC50 [2]: < 0.01 µM
- Dmax [2]: 50 to 75%

SMILES: O=C1CCC(N2C(=O)c3ccc(N4CCC(CNC5CCN(C(=O)N6CCN7c8cc(-c9ccccc9O)nnc8NC[C@H]7C6)CC5)CC4)cc3C2=O)C(=O)N1 (stereo partly drawn) [Example 140, 2-(2,6-dioxopiperidin-3-yl)-5-(4-(((l-((S)-2-(2-hydroxyphenyl)-6,6a,7,8,9,10-hexahydro-5H-pyrazino[1′,2′:4,5]pyrazino[2,3-c]pyridazine-8-carbonyl)piperidin-4-yl)amino)methyl)piperidin-1-yl)isoindoline-1,3-dione]
- DC50 [1]: < 0.01 µM
- Dmax [1]: 75 to 85%
- DC50 [2]: < 0.01 µM
- Dmax [2]: 75 to 85%

SMILES: O=C1CCC(N2C(=O)c3ccc(N4CCC(CN5C[C@@H]6[C@H](C5)[C@H]6CN5CCN6c7cc(-c8ccccc8O)nnc7NC[C@H]6C5)[C@@H](F)C4)cc3C2=O)C(=O)N1 (stereo in doubt) [Example 192, 2-(2,6-dioxopiperidin-3-yl)-5-[(3R,4R)-3-fluoro-4-[[(1S,5R)-6-[[(10S)-4-(2-hydroxyphenyl)-1,5,6,8,12-pentazatricyclo[8.4.0.02,7]tetradeca-2(7),3,5-trien-12-yl]methyl]-3-azabicyclo[3.1.0]hexan-3-yl]methyl]piperidin-1-yl]isoindole-1,3-dione]
- DC50 [1]: < 0.01 µM
- Dmax [1]: 50 to 75%
- DC50 [2]: < 0.01 µM
- Dmax [2]: ≤ 50%

SMILES: O=C1CCC(N2C(=O)c3ccc(Nc4cccc(N5CCC(N6CCN7c8cc(-c9ccccc9O)nnc8NC[C@H]7C6)CC5)c4)cc3C2=O)C(=O)N1 (stereo partly drawn) [Example 244, 2-(2,6-dioxopiperidin-3-yl)-5-((3-(4-((S)-2-(2-hydroxyphenyl)-5,6,6a,7,9,10-hexahydro-8H-pyrazino[1′,2′:4,5]pyrazino[2,3-c]pyridazin-8-yl)piperidin-1-yl)phenyl)amino)isoindoline-1,3-dione]
- DC50 [1]: < 0.01 µM
- Dmax [1]: 75 to 85%
- DC50 [2]: 0.01 to 0.1 µM
- Dmax [2]: 75 to 85%

SMILES: O=C1CCC(N2C(=O)c3ccc(N4CCC(CN5CCC(NC(=O)N6CCN7c8cc(-c9ccccc9O)nnc8NC[C@H]7C6)CC5)CC4)cc3C2=O)C(=O)N1 (stereo partly drawn) [Example 80, (6aS)-N-(1-((1-(2-(2,6-dioxopiperidin-3-yl)-1,3-dioxoisoindolin-5-yl)piperidin-4-yl)methyl)piperidin-4-yl)-2-(2-hydroxyphenyl)-5,6,6a,7,9,10-hexahydro-8H-pyrazino[1′,2′:4,5]pyrazino[2,3-c]pyridazine-8-carboxamide]
- DC50 [1]: < 0.01 µM
- Dmax [1]: > 85%
- DC50 [2]: < 0.01 µM
- Dmax [2]: > 85%

SMILES: O=C1CCC(N2C(=O)c3ccc(N4CCC(CNC56CC(CN7CCN8c9cc(-c%10ccccc%10O)nnc9NC[C@H]8C7)(C5)C6)CC4)cc3C2=O)C(=O)N1 (stereo partly drawn) [Example 134, 2-(2,6-dioxopiperidin-3-yl)-5-(4-(((3-(((S)-2-(2-hydroxyphenyl)-5,6,6a,7,9,10-hexahydro-8H-pyrazino[1′,2′:4,5]pyrazino[2,3-c]pyridazin-8-yl)methyl)bicyclo[1.1.1]pentan-1-yl)amino)methyl)piperidin-1-yl)isoindoline-1,3-dione]
- DC50 [1]: < 0.01 µM
- Dmax [1]: 75 to 85%
- DC50 [2]: < 0.01 µM
- Dmax [2]: 50 to 75%

SMILES: O=C1CCC(N2Cc3ccc(N4CCN(CCN5CCC(CN6CCN7c8cc(-c9ccccc9O)nnc8NC[C@H]7C6)CC5)CC4)cc3C2=O)C(=O)N1 (stereo partly drawn) [Example 119, 3-(6-(4-(2-(4-(((S)-2-(2-hydroxyphenyl)-5,6,6a,7,9,10-hexahydro-8H-pyrazino[1′,2′:4,5]pyrazino[2,3-c]pyridazin-8-yl)methyl)piperidin-1-yl)ethyl)piperazin-1-yl)-1-oxoisoindolin-2-yl)piperidine-2,6-dione]
- DC50 [1]: < 0.01 µM
- Dmax [1]: > 85%
- DC50 [2]: < 0.01 µM
- Dmax [2]: > 85%

SMILES: O=C1CCC(N2C(=O)c3ccc(N4C[C@H]5CC(N6CCC(CN7CCN8c9cc(-c%10ccccc%10O)nnc9NC[C@H]8C7)CC6)[C@H]5C4)cc3C2=O)C(=O)N1 (stereo partly drawn) [Example 190, 2-(2,6-dioxopiperidin-3-yl)-5-[(1S,5R)-6-[4-[[(10S)-4-(2-hydroxyphenyl)-1,5,6,8,12-pentazatricyclo[8.4.0.02,7]tetradeca-2(7),3,5-trien-12-yl]methyl]piperidin-1-yl]-3-azabicyclo[3.2.0]heptan-3-yl]isoindole-1,3-dione]
- DC50 [1]: < 0.01 µM
- Dmax [1]: 75 to 85%
- DC50 [2]: < 0.01 µM
- Dmax [2]: 75 to 85%

SMILES: CC1CN(CCCC2CCN(c3cccc4c3C(=O)N(C3CCC(=O)NC3=O)C4=O)CC2)CCC1N1CCN2c3cc(-c4ccccc4O)nnc3NC[C@H]2C1 (stereo partly drawn) [Example 124, 2-(2,6-dioxopiperidin-3-yl)-4-(4-(3-(4-((S)-2-(2-hydroxyphenyl)-5,6,6a,7,9,10-hexahydro-811-pyrazino[1′,2′:4,5]pyrazino[2,3-c]pyridazin-8-yl)-3-methylpiperidin-1-yl)propyl)piperidin-1-yl) isoindoline-1,3-dione]
- DC50 [1]: < 0.01 µM
- Dmax [1]: 50 to 75%
- DC50 [2]: < 0.01 µM
- Dmax [2]: 50 to 75%

SMILES: O=C1CCC(N2Cc3ccc(C4CCN(CCN5CCC(N6CCN7c8cc(-c9ccccc9O)nnc8NC[C@H]7C6)CC5)CC4)cc3C2=O)C(=O)N1 (stereo partly drawn) [Example 118, 3-(6-(1-(2-(4-((S)-2-(2-hydroxyphenyl)-5,6,6a,7,9,10-hexahydro-8H-pyrazino[1′,2′:4,5]pyrazino[2,3-c]pyridazin-8-yl)piperidin-1-yl)ethyl)piperidin-4-yl)-1-oxoisoindolin-2-yl)piperidine-2,6-dione]
- DC50 [1]: < 0.01 µM
- Dmax [1]: > 85%
- DC50 [2]: 0.01 to 0.1 µM
- Dmax [2]: > 85%

SMILES: CC1(CN2CCC(CN3CCN4c5cc(-c6ccccc6O)nnc5NC[C@H]4C3)CC2)CCN(c2ccc3c(c2)C(=O)N(C2CCC(=O)NC2=O)C3=O)CC1 (stereo partly drawn) [Example 226, 2-(2,6-dioxopiperidin-3-yl)-5-(4-((4-(((S)-2-(2-hydroxyphenyl)-5,6,6a,7,9,10-hexahydro-8H-pyrazino[1′,2′:4,5]pyrazino[2,3-c]pyridazin-8-yl)methyl)piperidin-1-yl)methyl)-4-methylpiperidin-1-yl)isoindoline-1,3-dione]
- DC50 [1]: < 0.01 µM
- Dmax [1]: > 85%
- DC50 [2]: < 0.01 µM
- Dmax [2]: 75 to 85%

SMILES: O=C1CCC(N2C(=O)c3ccc(N4CCC(CN5CCN(C(=O)N6CCN7c8cc(-c9ccccc9O)nnc8NC[C@H]7C6)CC5)C(F)(F)C4)cc3C2=O)C(=O)N1 (stereo partly drawn) [Example 195, 5-[3,3-difluoro-4-[[4-[(10S)-4-(2-hydroxyphenyl)-1,5,6,8,12-pentazatricyclo[8.4.0.02,7]tetradeca-2(7),3,5-trien-12-carbonyl]piperazin-1-yl]methyl]piperidin-1-yl]-2-(2,6-dioxopiperidin-3-yl) isoindole-1,3-dione]
- DC50 [1]: < 0.01 µM
- Dmax [1]: 50 to 75%
- DC50 [2]: 0.01 to 0.1 µM
- Dmax [2]: 50 to 75%

SMILES: O=C1CCC(N2Cc3ccc(N4CCC(CN5C6CCC5CN(C(=O)N5CCN7c8cc(-c9ccccc9O)nnc8NC[C@H]7C5)C6)CC4)cc3C2=O)C(=O)N1 (stereo partly drawn) [Example 103, 3-(6-(4-((3-((S)-2-(2-hydroxyphenyl)-6,6a,7,8,9,10-hexahydro-5H-pyrazino[1′,2′:4,5]pyrazino[2,3-c]pyridazine-8-carbonyl)-3,8-diazabicyclo[3.2.1]octan-8-yl)methyl)piperidin-1-yl)-1-oxoisoindolin-2-yl)piperidine-2,6-dione]
- DC50 [1]: < 0.01 µM
- Dmax [1]: 75 to 85%
- DC50 [2]: 0.01 to 0.1 µM
- Dmax [2]: 75 to 85%

SMILES: O=C1CCC(N2C(=O)c3ccc(N4CCC(CN5CCC(CN6CCN7c8cc(-c9ccccc9O)nnc8NC[C@H]7C6)CC5)CC4)cc3C2=O)C(=O)N1 (stereo partly drawn) [Example 31, 2-(2,6-dioxopiperidin-3-yl)-5-(4-((4-(((S)-2-(2-hydroxyphenyl)-5,6,6a,7,9,10-hexahydro-8H-pyrazino[1′,2′:4,5]pyrazino[2,3-c]pyridazin-8-yl)methyl)piperidin-1-yl)methyl)piperidin-1-yl)isoindoline-1,3-dione]
- DC50 [1]: < 0.01 µM
- Dmax [1]: > 85%
- DC50 [2]: < 0.01 µM
- Dmax [2]: > 85%

SMILES: O=C1CCC(N2Cc3ccc(N4CC(CN5CCC(CN6CCN7c8cc(-c9ccccc9O)nnc8NC[C@H]7C6)CC5)C4)cc3C2=O)C(=O)N1 (stereo partly drawn) [Example 276, 3-(6-(3-((4-(((S)-2-(2-hydroxyphenyl)-5,6,6a,7,9,10-hexahydro-8H-pyrazino[1′,2′:4,5]pyrazino[2,3-c]pyridazin-8-yl)methyl)piperidin-1-yl)methyl)azetidin-1-yl)-1-oxoisoindolin-2-yl) piperidine-2,6-dione]
- DC50 [1]: < 0.01 µM
- Dmax [1]: > 85%
- DC50 [2]: < 0.01 µM
- Dmax [2]: > 85%

Reference: patent publication US12448389B2, “BRM targeting compounds and associated methods of use” (Prelude Therapeutics Incorporated, priority 2020, dated 2025)
